These results are taken from EP3906926A1, “PROLINE HYDROXYLASE INHIBITORS FOR USE IN THE SKELETAL MUSCLE REGENERATION” (Policlinico San Donato S.p.A.- Istituto di Ricovero e Cura …, priority 2020, dated 2021).

What all share (type): cell-based, murine
In one assay the test system is MyoD. Briefly: Western blot of MyoD nuclear localization. As to conditions: IOX2 or FG-4592 for 24 hours. The procedure: (§1) For nuclei separation, 5 x 10^6 cells were collected after enzymatic digestion with trypsin (Merck), centrifuged at the maximum speed, resuspended in 400 µl of Buffer A (10 mM KCl, 0.1 mM EDTA, 1 mM DTT, 10 mM Hepes, pH 7.9), containing protease and phosphatase inhibitors cocktail (Merck), and incubated on ice for 20 minutes. Then, 10% NP40 was added to the cell suspension, mixed for 40 seconds, and centrifuged 40 seconds at the maximum speed. After centrifugation, the pellet was resuspended in 80 µl of Buffer C (0.4M NaCl, 1 mM EDTA, 1 mM DTT, 20 mM Hepes, pH 7.9), containing a protease and phosphatase inhibitors cocktail, and then mixed for 30 minutes at 4°C at the maximum speed. Finally, the nuclear suspension was centrifuged for 5 minutes at 4°C at the maximum speed, collected and transferred in a new tube. The total protein content was determined with the BCA Protein Assay Kit (Pierce), according to the manufacturer's instructions.
Proteins were denaturated by boiling for 10 minutes in sample buffer (0.6 g/100 mL Tris, 2 g/100 mL SDS, 10% glycerol, 1% 2-mercaptoethanol, pH 6.8) and loaded into 10% SDS-PAGE gel, then transferred onto a nitrocellulose membrane (Trans-blot, Bio-Rad Laboratories) by electroblotting. Nitrocellulose membranes were incubated with a blocking solution containing 5% (w/v) non-fat dry milk or 5% (w/v) BSA (Merck) in Tris-buffer saline with 0.1% Tween® 20 (TBS-T) for 1 hour. […] Membranes were washed three times for 10 minutes with TBS-T, and then incubated with the appropriate anti-mouse, anti-rabbit, or anti-goat HRP-conjugated secondary antibodies (Dako, Agilent Technologies), 1:2000 dilution, for 1 hour at room temperature. After three washes for 10 minutes with TBS-T, the immunoreactive bands were visualized using the enhanced chemiluminescence detection kit reagents (ECL Advance, GeHealthcare), according to the manufacturer's instructions.
as §1, with “For total proteins extraction, 7.5 x 10^4 cells were seeded and harvested at 7th days of skeletal muscle differentiation, as previously described. Cells were collected after enzymatic digestion with trypsin (Merck), lysed by sonication and centrifuged at 800 xg for 10 minutes. Supernatant was used to determine total protein content with the BCA Protein Assay Kit (Pierce), according to the manufacturer's instructions. For” for “For”, “(0.4 M” for “(0.4M”

Another assay deals with MYOR. Briefly: qPCR of MYOR. As to conditions: IOX2 or FG-4592 treatment, vs controls. On the procedure: (§2) Total RNA was isolated using ReliaPrep™ RNA Miniprep Systems (Promega), and reverse transcribed to cDNA using the iScript cDNA synthesis kit (BioRad), according to the Manufacturer's instructions. Real-Time Quantitative PCR was performed on 10 ng of cDNA template, 0.2 µM primers, and GoTaq® qPCR Master Mix (Promega) in 20 µl final volume using a StepOnePlus® Real-Time PCR System (Applied Biosystem). […] RPL13 was used as the housekeeping gene. The amplification program consisted in an initial denaturation at 95°C for 3 minutes, followed by 40 cycles of 5 seconds each at 95°C and 30 seconds at 57°C; WNT7a was amplified at 53°C. Relative quantification of target genes was performed in triplicate and calculated by the equation 2^-ΔΔCt.
On the technique in general: Quantitative PCR measures a nucleic acid by following its amplification.

For the next assay, the system named is Myogenin. Briefly: qPCR of Myogenin during differentiation. As to conditions: day 3 of differentiation, IOX2 or FG-4592 pre-treated myoblasts. On the procedure:
as §2
as §2, with “ReliaPrepTM” for “ReliaPrep™”, “2-ΔΔCt.” for “2^-ΔΔCt.”

For the compound `O=C(O)CNC(=O)c1c(O)c2ccccc2n(Cc2ccccc2)c1=O` [IOX2], the “increase of the nuclear localization of MyoD” value in the assay with MyoD is 1.6 fold. Moreover, in the assay on MYOR, the “MYOR mRNA level down-regulated” value was found to be 2.2 fold. In the assay with Myogenin, the “increase of Myogenin” value is 2.0 fold.
The matching figures for `Cc1nc(C(=O)NCC(=O)O)c(O)c2ccc(Oc3ccccc3)cc12` [FG-4592, Roxadustat]: 1.5 fold, 2.6 fold and 1.4 fold.
